Measured values published in PMC7993375, “Discovery of novel quinoline-based analogues of combretastatin A-4 as tubulin polymerisation inhibitors with apoptosis inducing activity and potent anticancer effect” (Journal of Enzyme Inhibition and Medicinal Chemistry, 2021).
Like-named read-outs stand apart in the source and are kept apart here.

Experiments:
bovine brain tubulin = assay: Tubulin polymerisation assay; format: biochemical; conditions: Tubulin was at 10 µM; read-out: Tubulin assembly IC50 (inhibition of tubulin polymerisation)
Protocol: The assembly of purified bovine tubulin was monitored using a kit, BK006, purchased from Cytoskeleton Inc., (Denver, CO, USA). The assay was carried out in accordance with the manufacturer’s instructions using the standard assay conditions. Briefly, purified ([…]) in a buffer consisting of 80 mM PIPES (pH 6.9), 0.5 mM EGTA, 2 mM MgCl2, 1 mM GTP and 10% glycerol was incubated at 37 °C in the presence of either vehicle (2% (v/v) ddH2O), CA-4, or the quinoline compounds. Light is scattered proportionally to the concentration of polymerised microtubules in the assay. Therefore, tubulin assembly was monitored turbidimetrically at 340 nm in a Spectramax 340 PC spectrophotometer (Molecular Devices, Sunnyvale, CA, USA). The concentration that inhibits tubulin polymerisation by 50% (IC50) was determined using area under the curve (AUC). The AUC of the untreated controls were considered as 100% polymerisation. The IC50 value for each compound was computed using GraphPad Prism Software.

MCF-7 = assay: MTT cell viability assay, MCF-7 breast adenocarcinoma cells; format: cell-based; conditions: Homo sapiens
Protocol: (§1) The four human tumour cell lines MCF-7, HCT-116, HL-60 and HeLa used in this study were obtained from the VACSERA (Giza, Egypt) cell culture unit that were originally acquired from ATCC (Manassas, VA, USA). All the human tumour cell lines were cultured in Dulbecco’s Modified Eagle’s Medium (DMEM) with 10% foetal bovine serum, 2 mM L-glutamine and 100 µg/mL penicillin/streptomycin. Cells were maintained at 37 °C in 5% CO2 in a humidified incubator. All cells were sub-cultured 3 times/week by trypsinisation using TrypLE Express (1X).
(§2) The quinoline compounds were evaluated for antiproliferative effect using the MTT viability assay of four cancer cell lines (MCF-7, HCT-116, HL-60 and HeLa) and normal breast cells MCF-10A to calculate the relative IC50 values for each compound. Cells were seeded in triplicate in 96-well plates at a density of 10 × 10^3 cells/ml in a total volume of 200 µl per well. 0.1% of DMSO was used as a vehicle control. Following, the cells were treated with 2 µl test compound (from stock solutions in ethanol) to furnish the concentration range of study, 1 nM to 50 µM, and re-incubated for a further 72 h. The culture medium was then removed, and the cells washed with 100 µL phosphate buffered saline (PBS) and 50 µL MTT added, to reach a final concentration of 1 mg/mL. Cells were incubated for 2 h in darkness at 37 °C. Solubilisation was begun through the addition of […] DMSO, and the cells maintained at room temperature in darkness for 20 min to ensure thorough colour diffusion before reading the absorbance. Plates were incubated for 72 h at 37 °C + 5% CO2. The MTT (5 mg/mL in PBS) was added and incubated for another 4 h, and the optical density was detected with a microplate reader at 570 nm. Results were expressed as percentage viability relative to vehicle control (100%). Dose response curves were plotted and IC50 values (concentration of drug resulting in 50% reduction in cell survival) were obtained using the commercial software package Prism (GraphPad Software, Inc., La Jolla, CA, USA). All the experiments were repeated in at least three independent experiments.

HeLa = assay: MTT cell viability assay, HeLa cervical adenocarcinoma cells; format: cell-based; conditions: Homo sapiens, 72 h
Protocol: as §1, §2

[1] = tested on: tubulin (colchicine binding site); assay: Colchicine site competitive binding assay ([3H]colchicine); conditions: tubulin 1 µM, colchicine 5 µM
Protocol: The affinity of compounds 12c to colchicine binding site was determined using Colchicine Site Competitive Assay kit CytoDYNAMIX Screen15 (Cytoskeleton, Inc., Denver, CO, USA) using the standard protocol of the manufacturer to determine Ki. Biotin-labelled tubulin ([…], PerkinElmer, Waltham, MA) and the test compounds (positive control colchicine, negative control vinblastine, G-1, fluorescent G-1, or 2-ME) in a 96-well plate (final volume: 100 µL). After incubating for 2 h at 37 °C with gentle shaking, streptavidin-labelled yttrium SPA beads (80 µg in 20 µL reaction buffer, PerkinElmer, Waltham, MA) were added to each well and incubated for 30 min at 4 °C. The plates were then read on a scintillation counter (Packard Instrument, Topcount Microplate Reader) and the percentage of inhibition was calculated[50]^,[51].

MCF-10A = assay: MTT cell viability assay, normal epithelial breast MCF-10A cells; format: cell-based; conditions: Homo sapiens, 72 h
Protocol: as §2, with “Dose response curves were plotted and IC50 values (concentration of drug resulting in 50% reduction in cell survival) were obtained using the commercial software package Prism (GraphPad Software, Inc., La Jolla, CA, USA). All the experiments were repeated in at least three independent experiments.” left out

HCT-116 = assay: MTT cell viability assay, HCT-116 colorectal carcinoma cells; format: cell-based; conditions: Homo sapiens, 72 h
Protocol: as §1, §2

MCF-7 cells = assay: Cell cycle analysis (PI, flow cytometry); format: cell-based, human; conditions: for percentage of cells in G0/G1 phase: control 57.3%
Protocol: MCF-7 cells were seeded at a density of 1 × 10^5 cells/well in 6-well plates and treated with CA-4 (50 nM) and compound 12c (50 and 250 nM) for 24, 48 and 72 h. The cells were collected by trypsinisation and centrifuged at 800×g for 15 min. Cells were washed twice with ice-cold PBS and fixed in ice-cold 70% ethanol overnight at −20 °C. Fixed cells were centrifuged at 800×g for 15 min and stained with 50 µg/mL of PI, containing 50 µg/mL of DNase-free RNase A, at 37 °C for 30 min. The DNA content of cells (10,000 cells/experimental group) was analysed by flow cytometer at 488 nm using a FACSCalibur flow cytometer (BD Biosciences, San Jose, CA) and all data were recorded and analysed using the CellQuest Software (Becton-Dickinson).

[2] = MCF7, 72 h, read-out: IC50 value, MCF-7

| SMILES | IC50 (bovine brain tubulin) | IC50 (MCF-7; [2]) | IC50 (HeLa) | Colchicine binding, % inhibition of [3H]colchicine binding ([1]; 1 µM drug) | Colchicine binding, % inhibition of [3H]colchicine binding ([1]; 5 µM drug) | IC50 (MCF-10A) | IC50 (HCT-116) | percentage of cells in G2/M phase (MCF-7 cells; 50 nM, 48 h, untreated 9.2%) | percentage of cells in G2/M phase (MCF-7 cells; 50 nM, 72 h) | further results |
| --- | --- | --- | --- | --- | --- | --- | --- | --- | --- | --- |
| COc1ccc(/C=C\c2cc(OC)c(OC)c(OC)c2)cc1O [CA-4, Combretastatin A-4] | […] | 19 ± 4 nM | 64 ± 4 nM | 86 ± 0.9% | 97 ± 2% | 6100 nM | 26 ± 1 nM | 43.8% | 47.7% | apoptosis, proportion of cells in sub-G1 phase (MCF-7 cells; 50 nM, 24 h): 23.5%; percentage of cells in G2/M phase (MCF-7 cells; 50 nM, 24 h): 40.3%; apoptosis, proportion of cells in sub-G1 phase (MCF-7 cells; 50 nM, 48 h): 31.1%; apoptosis, proportion of cells in sub-G1 phase (MCF-7 cells; 50 nM, 72 h): 37.4% |
| COc1cc(C2=NC(=Cc3cc4ccc(C)cc4nc3OC)C(=O)O2)cc(OC)c1OC [Compound 12c, 4-[(2-Methoxy-7-methylquinolin-3-yl)methylene]-2–(3,4,5-trimethoxyphenyl) oxazol-5(4H)-one] | 1210 nM | 10 ± 3 nM | 42 ± 1 nM | 79 ± 2% | 87 ± 1% | > 50000 nM | 22 ± 1 nM | 28.4% | 33.0% | IC50 (MCF-7; MCF7, read-out: IC50, MCF-7): 19 nM; percentage of cells in G0/G1 phase (MCF-7 cells; 50 nM, 72 h): 40.3%; apoptosis, proportion of cells in sub-G1 phase (MCF-7 cells; 250 nM, 24 h, untreated 1.5%): 16.2%; apoptosis, proportion of cells in sub-G1 phase (MCF-7 cells; 250 nM, 48 h, untreated 1.5%): 23.4%; percentage of cells in G2/M phase (MCF-7 cells; 250 nM, 48 h, untreated 9.2%): 38.3%; percentage of cells in G2/M phase (MCF-7 cells; 250 nM, 72 h): 40.8%; percentage of cells in G0/G1 phase (MCF-7 cells; 250 nM, 72 h): 29.8%; apoptosis, proportion of cells in sub-G1 phase (MCF-7 cells; 250 nM, 72 h, untreated 1.5%): 32.7% |
